Data as given in patent US20050107423A1, “Quinolone antibacterial agents” (priority 2003, published 2005).
≈ marks a conversion by molar mass, not a printed value.

Experiments:
Test in all cases: Antibacterial assay, microtitration MIC (Test A)
Type in all cases: cell-based
[1] = system: E. faecalis MGH-2; details: strain MGH-2; for MIC: Enterococcus faecalis, MGH2, Gram Positive Bacteria, read-out: Minimum Inhibitory Concentrations E. faecalis MGH-2; for Minimum Inhibitory Concentrations E. faecalis MGH-2: Gram Positive Bacteria
Description: (§1) The compounds of the present invention were tested against an assortment of Gram-negative and Gram-positive organisms using standard microtitration techniques (Cohen et. al., Antimicrob., 1985;28:766; Heifetz, et. al., Antimicrob., 1974;6:124). The results of the evaluation are shown in Tables 1A and B, wherein “-” means no data.

[2] = system: S pyogenes C203; details: Gram Positive Bacteria, strain C203; for MIC: read-out: Minimum Inhibitory Concentrations S pyogenes C203
Description: as §1

[3] = system: S. pneumo SV-1; details: Gram Positive Bacteria, strain SV-1; for MIC: read-out: Minimum Inhibitory Concentrations S. pneumo SV-1
Description: as §1

| MIC [1] | MIC [2] | MIC [3] | Structure (SMILES) | Minimum Inhibitory Concentrations E. faecalis MGH-2 [1] | Minimum Inhibitory Concentrations S pyogenes C203 [2] | Minimum Inhibitory Concentrations S. pneumo SV-1 [3] |
| --- | --- | --- | --- | --- | --- | --- |
| 0.25 µg/mL (≈ 0.602 µM) | 1 µg/mL (≈ 2.41 µM) | 0.5 µg/mL (≈ 1.2 µM) | O=C(O)c1cn(C2CC2)c2nc(N3CCC(C(O)C(F)(F)F)C3)c(F)cc2c1=O (stereo not drawn) [drawing 367] |  |  |  |
| 0.125 µg/mL (≈ 0.311 µM) | 0.125 µg/mL (≈ 0.311 µM) | 0.125 µg/mL (≈ 0.311 µM) | COc1c(N2C[C@@H]3CC[C@@H](O)[C@@H]3C2)c(F)cc2c(=O)c(C(=O)O)cn(C3CC3)c12 [drawing 454] |  |  |  |
| 0.25 µg/mL (≈ 0.505 µM) | 0.25 µg/mL (≈ 0.505 µM) | 0.125 µg/mL (≈ 0.253 µM) | Nc1nc(-n2cc(C(=O)O)c(=O)c3cc(F)c(N4C[C@@H]5CC[C@@H](O)[C@@H]5C4)c(Cl)c32)c(F)cc1F [drawing 455] |  |  |  |
| 0.25 µg/mL (≈ 0.56 µM) | 0.25 µg/mL (≈ 0.56 µM) | 0.125 µg/mL (≈ 0.28 µM) | COc1c(N2CCC(C(O)C3(CO)CC3)C2)c(F)cc2c(=O)c(C(=O)O)cn(C3CC3)c12 (stereo not drawn) [drawing 353] |  |  |  |
| 2 µg/mL (≈ 5.12 µM) | 1 µg/mL (≈ 2.56 µM) | 1 µg/mL (≈ 2.56 µM) | Cc1c(N2CCC(C(O)CO)C2)c(F)cc2c(=O)c(C(=O)O)cn(C3CC3)c12 (stereo not drawn) [drawing 356] |  |  |  |
| 0.125 µg/mL (≈ 0.315 µM) | 0.25 µg/mL (≈ 0.629 µM) | 0.25 µg/mL (≈ 0.629 µM) | O=C(O)c1cn(C2CC2)c2nc(N3CCC(C(O)C(F)F)C3)c(F)cc2c1=O (stereo not drawn) [drawing 352] |  |  |  |
| 0.5 µg/mL (≈ 1 µM) | 0.5 µg/mL (≈ 1 µM) | 0.5 µg/mL (≈ 1 µM) | Nc1nc(-n2cc(C(=O)O)c(=O)c3cc(F)c(N4CCC(C(O)CO)C4)c(Cl)c32)c(F)cc1F (stereo not drawn) [drawing 359] |  |  |  |
|  |  |  | Cc1c(N2CCC(C(C)O)C2)c(F)cc2c(=O)c(C(=O)O)cn(C3CC3)c12 (stereo not drawn) [drawing 346] | 0.06 µg/mL | 0.06 µg/mL | 0.06 µg/mL |
| 0.5 µg/mL (≈ 0.931 µM) | 0.5 µg/mL (≈ 0.931 µM) | 0.125 µg/mL (≈ 0.233 µM) | CC(=O)O[C@@H]1CC[C@H]2CN(c3c(F)cc4c(=O)c(C(=O)O)cn(-c5nc(N)c(F)cc5F)c4c3Cl)C[C@H]21 [drawing 456] |  |  |  |
| 0.125 µg/mL (≈ 0.277 µM) | 0.125 µg/mL (≈ 0.277 µM) | 0.125 µg/mL (≈ 0.277 µM) | O=C(O)c1cn(C2CC2)c2c(Cl)c(N3CCC(C(O)C4(CO)CC4)C3)c(F)cc2c1=O (stereo not drawn) [drawing 354] |  |  |  |
| 0.125 µg/mL (≈ 0.32 µM) | 0.125 µg/mL (≈ 0.32 µM) | 0.06 µg/mL (≈ 0.154 µM) | COc1c(N2CCC(C(C)O)C2)c(F)cc2c(=O)c(C(=O)O)cn(C3CC3)c12 (stereo not drawn) [drawing 345] |  |  |  |
|  |  |  | Cc1c(N2CCC(C(O)C(F)(F)F)C2)c(F)cc2c(=O)c(C(=O)O)cn(C3CC3)c12 (stereo not drawn) [drawing 364] | 0.06 µg/mL | 0.5 µg/mL | 0.125 µg/mL |
| 0.5 µg/mL (≈ 0.961 µM) | 0.5 µg/mL (≈ 0.961 µM) | 0.5 µg/mL (≈ 0.961 µM) | COc1c(N2CCC(C(O)c3ccc(S(C)(=O)=O)o3)C2)c(F)cc2c(=O)c(C(=O)O)cn(C3CC3)c12 (stereo not drawn) [drawing 348] |  |  |  |
| 0.125 µg/mL (≈ 0.29 µM) | 0.25 µg/mL (≈ 0.58 µM) | 0.125 µg/mL (≈ 0.29 µM) | O=C(O)c1cn(C2CC2)c2c(Cl)c(N3CCC(C(O)C(F)F)C3)c(F)cc2c1=O (stereo not drawn) [drawing 350] |  |  |  |
| 0.125 µg/mL (≈ 0.265 µM) | 0.25 µg/mL (≈ 0.529 µM) | 0.125 µg/mL (≈ 0.265 µM) | COc1c(N2CCC(C)(C(O)CC(F)(F)F)C2)c(F)cc2c(=O)c(C(=O)O)cn(C3CC3)c12 (stereo not drawn) [drawing 376] |  |  |  |
| 0.5 µg/mL (≈ 0.931 µM) | 1 µg/mL (≈ 1.86 µM) | 0.5 µg/mL (≈ 0.931 µM) | Nc1nc(-n2cc(C(=O)O)c(=O)c3cc(F)c(N4CCC(C(O)C(F)(F)F)C4)c(Cl)c32)c(F)cc1F (stereo not drawn) [drawing 366] |  |  |  |
| 0.06 µg/mL (≈ 0.147 µM) | 0.06 µg/mL (≈ 0.147 µM) | 0.03 µg/mL (≈ 0.0737 µM) | O=C(O)c1cn(C2CC2)c2c(Cl)c(N3CC(CO)C4(CC4)C3)c(F)cc2c1=O (stereo not drawn) [drawing 430] |  |  |  |
| 0.125 µg/mL (≈ 0.269 µM) | 0.125 µg/mL (≈ 0.269 µM) | 0.06 µg/mL (≈ 0.129 µM) | Nc1nc(-n2cc(C(=O)O)c(=O)c3cc(F)c(N4CCC(C(O)CO)C4)cc32)c(F)cc1F (stereo not drawn) [drawing 358] |  |  |  |
| 0.06 µg/mL (≈ 0.149 µM) | 0.03 µg/mL (≈ 0.0745 µM) | 0.03 µg/mL (≈ 0.0745 µM) | COc1c(N2CC(CO)C3(CC3)C2)c(F)cc2c(=O)c(C(=O)O)cn(C3CC3)c12 (stereo not drawn) [drawing 429] |  |  |  |
| 0.06 µg/mL (≈ 0.146 µM) | 0.03 µg/mL (≈ 0.073 µM) | 0.06 µg/mL (≈ 0.146 µM) | O=C(O)c1cn(C2CC2)c2c(Cl)c(N3CCC(C(O)CO)C3)c(F)cc2c1=O (stereo not drawn) [drawing 357] |  |  |  |
| 0.06 µg/mL (≈ 0.135 µM) | 0.125 µg/mL (≈ 0.281 µM) | 0.06 µg/mL (≈ 0.135 µM) | COc1c(N2CCC(C(O)C(F)(F)F)C2)c(F)cc2c(=O)c(C(=O)O)cn(C3CC3)c12 (stereo not drawn) [drawing 362] |  |  |  |
| 0.25 µg/mL (≈ 0.482 µM) | 0.125 µg/mL (≈ 0.241 µM) | 0.06 µg/mL (≈ 0.116 µM) | Nc1nc(-n2cc(C(=O)O)c(=O)c3cc(F)c(N4CCC(C(O)C(F)F)C4)c(Cl)c32)c(F)cc1F (stereo not drawn) [drawing 351] |  |  |  |
| 0.25 µg/mL (≈ 0.545 µM) | 0.25 µg/mL (≈ 0.545 µM) | 0.25 µg/mL (≈ 0.545 µM) | Cc1c(N2CCC(C(O)(CO)C(F)(F)F)C2)c(F)cc2c(=O)c(C(=O)O)cn(C3CC3)c12 (stereo not drawn) [drawing 371] |  |  |  |
| 0.06 µg/mL (≈ 0.134 µM) | 0.5 µg/mL (≈ 1.12 µM) | 0.125 µg/mL (≈ 0.279 µM) | Nc1c(F)c(N2CCC(C(O)C(F)(F)F)C2)c(F)c2c1c(=O)c(C(=O)O)cn2C1CC1 (stereo not drawn) [drawing 365] |  |  |  |
